Data on 9 compounds can be found in paper PMC12786457, “Studies on the Complexation of Platinum(II) by Some 4-Nitroisothiazoles and the Cytotoxic Activity of the Resulting Complexes” (Molecules, 2025).

“Also recorded” adds a separate entry of the source. Where two headings read alike, the source gives them in different places.

For series [1] the following is noted: cited from earlier work.
Series [2] has as its system MCF-7 (breast adenocarcinoma). In words: SRB (sulforhodamine B) viability assay, MCF-7. The series is classed as cell-based, human. The conditions noted are these: SRB assay. The procedure:
(§1) The cytotoxicity of the complexes C1–C5 was estimated by examining cell viability using the sulforhodamine B assay. […] However, due to the very poor solubility of the most polar complex C5 in acetone, its initial solution had to be prepared in polar N,N-dimethylacetamide (DMA) (see Section 3.7). Cisplatin was used as the reference drug. The results are presented as IC50 (50% inhibitory concentration), i.e., concentrations that reduce cell survival by 50%. The test was conducted on three cancer cell lines and one normal healthy cell line, namely, breast adenocarcinoma (MCF-7), ovarian adenocarcinoma (ES-2), lung adenocarcinoma (A549), and murine embryonic fibroblast (BALB/3T3).
(§2) Three solid tumor cell lines were used in this study: MCF-7 (breast adenocarcinoma), ES-2 (ovarian adenocarcinoma), and A549 (lung adenocarcinoma). The BALB/3T3 (mouse embryonic fibroblast) cell line was used as a comparative nonpathological tissue. All cell lines were purchased from the American Type Culture Collection (ATCC, Rockville, MD, USA). The preparation of cell cultures for cytotoxicity experiments is described in detail in the following article.
(§3) The initial solutions for subsequent dilutions in biological medium were prepared in a similar manner as described previously. […] The complex C5 was dissolved in the dimethylacetamide (DMA). All the initial solutions were prepared ex tempore and then were added to the culture medium 1:9 (v/v) to obtain a stock solution of 1 mg/mL.
(§4) The test was prepared and performed in the same manner as detailed in the following cited works.

For series [3], the system named is A549 (lung adenocarcinoma). In words: SRB (sulforhodamine B) viability assay, A549. The class given is cell-based, human. The conditions noted are these: SRB assay. The procedure: as §1, §2, §3, §4
Series [4] deals with ES-2 (ovarian adenocarcinoma). Briefly: SRB (sulforhodamine B) viability assay, ES-2. The series is classed as cell-based, human. The procedure: as §1, §2, §3, §4
Series [5] deals with BALB/3T3 (mouse embryonic fibroblast). In words: SRB (sulforhodamine B) viability assay, normal cells BALB/3T3. The series is classed as cell-based. The conditions noted are these: normoxia, read-out: IC50 ± SD, Normal Cells BALB/3T3, Normoxia. The procedure: as §1, §2, §3, §4
Series [6] in a line: Solubility in solvents (qualitative). The series is classed as physicochemical.
Series [7] in a line: TLC Rf as a measure of relative lipophilicity. The class given is physicochemical. The conditions noted are these: silica gel TLC Al foils.
Series [8] is described as follows: TLC Rf as a measure of relative lipophilicity. The series is classed as physicochemical. The conditions noted are these: silica gel TLC Al foils. The method, then:
Measurement of the melting points (m.p.) of the obtained compounds was performed with the Büchi M560 melting point device (BÜCHI Labortechnik AG, CH-9230 Flawil/SG, Flawil, Switzerland) and was uncorrected. The ESI-MS (electrospray ionization mass spectroscopy) spectra were recorded with the compactTM Bruker Daltonics Electrospray Ionization Quadrupole Time-of-Flight (ESI-Q-TOF) spectrometer (Bruker Daltonics GmbH, Bremen, Germany). The ESI-MS measurements for new compounds were performed in both positive- and negative-ion mode in LC-MS-grade using LC-MS grade methanol as a solvent. ESI-MS spectral analysis and the simulation of the theoretical monoisotopic mass of detected ions were performed using Bruker Compass Data Analysis 4.2 software (Bruker Daltonics GmbH, Bremen, Germany). All ^1H and ^13C-NMR spectra were recorded on the following instruments: Bruker NMR AVANCE III™ 600 MHz spectrometer with Ascend™ technology magnet with a quadruple resonance NMR ‘inverse’ cryoprobe (Bruker Corporation, Billerica, MA, USA) and/or Bruker ARX-300 (300 MHz) spectrometer (Bruker Analytische Messtechnik GmbH, Rheinstetten, Germany). The NMR measurements of samples of the compounds were carried out at room temperature (20–25 °C) using 5 mm tubes in deuterated acetone-d6. NMR chemical shifts were referenced to the solvent signal, i.e., for ^1H-NMR: δ (quintet of residual acetone-d6) = 2.05 ppm and for ^13C-NMR: δ (septet of acetone-d6) = 29.84 ppm. The Nicolet iS50 FT-IR spectrophotometer (Thermo Fisher Scientific Inc., Waltham, MA, USA) was used to record the Attenuated Total Reflectance IR (ATR-FT-IR) spectra (at MIR range 4000–450 cm^−1). Recording of spectra was performed on the diamond crystal surface (32 scans, resolution: 1 cm^−1, measurement temperature: 20–25 °C) with ATR intensity correction in the Laboratory of Elemental Analysis and Structural Research, Faculty of Pharmacy, Wroclaw Medical University. A Fourier transform, Bruker VERTEX 70V vacuum spectrometer equipped with an air-cooled DTGS detector was used to obtain the Far-IR (far-infrared) spectra (below 500 cm^−1) of the Pt(II) complexes. The spectra measurements were conducted with the ATR accessory, such as a diamond ATR crystal, in the resolution of 1 cm^−1 with 64 scans in the Laboratory of Vibrational Spectroscopy of the Faculty of Chemistry at Wrocław University of Science and Technology. No ATR intensity correction was applied to Far-IR spectra. Omnic 9.3.30 and Omnic Specta 2.0 software (Thermo Fisher Scientific Inc.) was used to process and analyze spectra. A double beam U-2800 Spectrophotometer (Hitachi—Science & Technology, Tokyo, Japan) was used to record UV spectra of Pt-complexes (C1 and C2) and reaction rate measurements of the GSH complexes. Dioxane solutions of complexes were used in the following concentrations: c = 2 × 10^−5 M and 3 × 10^−5 M, respectively, for C1 and C2. Measurement of UV spectra was conducted in quartz cuvettes (path length = 10.0 mm) in the range 190–400 nm (sampling interval 1 nm, scan speed 200 nm/min). All UV experiments were performed in the Laboratory of Elemental Analysis and Structural Research, Faculty of Pharmacy, Wroclaw Medical University. Baselines were corrected with pure dioxane as the reference solvent. Thin-layer chromatography (TLC) was used to monitor the progress of the reaction course and determine the purity of the synthesized compounds. Silica gel on TLC Al foils with fluorescent indicator 254 nm (Sigma-Aldrich, Merck Group, Darmstadt, Germany) was used as the stationary phase and chloroform–acetone mixtures (volume ratios 9:1, 7:3, and 1:1) as the eluent. Detection of Pt(II) compounds in the chromatograms was performed using a 0.5% acetone solution of rubeanic acid (dithiooxamide), and organic impurities were detected by observing the plates under UV light at 250 nm. […]
The source holds these as a separate data set.

Setting [9] is: hypoxia, read-out: IC50 ± SD, MCF-7 (Breast), Hypoxia.
The mark [10] stands for this setting: normoxia, read-out: IC50 ± SD, MCF-7 (Breast), Normoxia.
The mark [11] stands for this setting: normoxia, read-out: IC50 ± SD, A549 (Lung), Normoxia.
[12] abbreviates: hypoxia, read-out: IC50 ± SD, ES-2 (Ovarian), Hypoxia.
Setting [13] is: normoxia, read-out: IC50 ± SD, ES-2 (Ovarian), Normoxia.
[14] abbreviates: earlier work of the authors, same methodology.

For the compound `N.N.O=C([O-])C1(C(=O)[O-])CCC1.[Pt+2]` [Carboplatin], the “Half-time, t1/2 of reaction with GSH” value in series [1] (literature value) is 16.7–32.7 h [35].

`N.N.[Cl][Pt][Cl]` [Cisplatin, cis-diamminodichloroplatinum, reference compound]: the IC50 stood at 9.74 ± 5.84 µM in series [2] (setting [9]); 14.4 ± 1.4 µM in series [2] (setting [10]); 14.8 ± 1.93 µM in series [3] (hypoxia, read-out: IC50 ± SD, A549 (Lung), Hypoxia); 12.5 ± 1.64 µM in series [3] (setting [11]); 6.28 ± 2.19 µM in series [4] (setting [12]); 9.85 ± 4.68 µM in series [4] (setting [13]). In series [5], the IC50 is 8.1 ± 5.61 µM.

`O=C(O)C(=O)O.[NH-][C@@H]1CCCC[C@H]1[NH-].[Pt+2]` [Oxaliplatin]: in series [1] (literature value, similar conditions), the “Half-time, t1/2 of reaction with GSH” value is 44 min [35].

Consider `N.N.[Cl][Pt+2][Cl]` [Transplatin], for which the “Half-time, t1/2 of reaction with GSH” value in series [1] (literature value) is 4 min [36].

Take `Cc1noc(C)c1[N+](=O)[O-].Cc1noc(C)c1[N+](=O)[O-].[Cl][Pt@SP1][Cl]` [cis-Pt(NO2Isoxazol)2Cl2]: the “Half-time, t1/2 of reaction with GSH” value in series [1] (setting [14]) is 42 min [18].

As for `Cn1cc([N+](=O)[O-])cn1.Cn1cc([N+](=O)[O-])cn1.[Cl][Pt@SP1][Cl]` [cis-Pt(NO2Pyraz)2Cl2], in series [1] (setting [14]), the “Half-time, t1/2 of reaction with GSH” value was 83 min [17].

Take `Cc1noc(C)c1[N+](=O)[O-].Cc1noc(C)c1[N+](=O)[O-].[Cl][Pt][Cl]` [trans-Pt(NO2Isoxazol)2Cl2, trans-dichlorobis(3,5-dimethyl-4-nitro-isoxazole)platinum(II)]: the “Half-time, t1/2 of reaction with GSH” value in series [1] (setting [14]) was 18 min [18].

With `Cn1cc([N+](=O)[O-])cn1.Cn1cc([N+](=O)[O-])cn1.[Cl][Pt][Cl]` [trans-Pt(NO2Pyraz)2Cl2, trans-[PtCl2 (1-methyl-4-nitropyrazole)2]], the “Half-time, t1/2 of reaction with GSH” value in series [1] (setting [14]) is 13 min [17].

As for “cis-Dichlorobis(3-methyl-4-nitroisothiazole-5-carboxamide)platinum(II) [C5]”, the solubility in acetone entry in series [6] (acetone) was “very poorly soluble; also recorded: weakly soluble”. Further, the solubility in acetonitrile entry in series [6] (acetonitrile, relative to acetone) is reported as “slightly better”. Moreover, the solubility in chloroform result in series [6] (chloroform) is listed as “practically insoluble”. The “Rf, Eluent: Chlorofom:Acetone Ratio 9:7 Vol.” value in series [7] amounted to 0.215. Further, the IC50 in series [2] (setting [9]) came to 67.3 ± 28.3 µM; in series [2] (setting [10]), 57.6 ± 7.69 µM; in series [3] (setting [11]), 66.2 ± 1.15 µM; in series [4] (setting [12]), 50.1 ± 7.97 µM; in series [4] (setting [13]), 62.5 ± 22.7 µM; in series [5], 64.2 ± 15.8 µM. The “IC50 ± SD, A549 (Lung), Hypoxia” value in series [3] (hypoxia) was “inactive”. Further, the “Rf, Eluent: Chlorofom:Acetone Ratio 1:1 Vol.” value in series [8] was 0.655. The “Rf, Eluent: Chlorofom:Acetone Ratio 9:1 Vol.” value in series [8] was 0.005.
